Laboratory results published in PMC6934184, “Selective DNA-PKcs inhibition extends the therapeutic index of localized radiotherapy and chemotherapy” (The Journal of Clinical Investigation, 2019).

Target: T1, FRAP1 (mTOR) (Homo sapiens, UniProt P42345)
T1 construct: purchased Thermo Fisher Scientific (Life Technologies) SelectScreen
Assay: SelectScreen Z'LYTE
Format: biochemical
How it was run: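 NU5455 was profiled across the SelectScreen Broad panel of kinase activity and binding assays. Z'LYTE reactions such as CSF1R ran at apparent Km ATP, while the Adapta CAMK1 assay used ATP listed as 10. Values are given as percent.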

CN(C(=O)CN1CCOCC1)c1ccc2sc3c(-c4cccc5c(=O)cc(N6CC7CCC(C6)O7)oc45)cccc3c2c1 [NU5455]
inhibition at 1 µM: 5.7%
